Here are results for two compounds from patent publication US20190355440A1, “FLOW CYTOMETRY DATA […] ANTIMICROBIAL AGENT S[…]” (priority 2016, published 2019).

The subject of this test is Enterobacteriaceae strains. Put plainly: FCM-AST: flow cytometry fluorescence distribution (DiBAC4(3) membrane depolarization marker) of antibiotic-treated strains. The format is cell-based. The protocol:
In a next step 22, liquid samples with different concentrations {C1, . . . , Cm} of the antibiotic are prepared for each of the selected strains Si, where C1=0 (no antibiotic) and m>2 is the number of non-null concentrations of antibiotic. Said concentrations are stored in the computer unit 14. […] After 2 h growth at 35° C. with shaking at 180 rpm, the resulting exponential phase bacterial culture is normalized at 0.5 McF and used to inoculate wells of a microtiterplate supplemented with antibiotics at the different concentrations {C1, . . . , Cm}. After 1 h of incubation at 35° C., a membrane depolarization fluorescent marker, for example (Bis-(1,3-Dibutylbarbituric Acid)Trimethine Oxonol), also known as “DiBAC4(3)”, is added to the wells at a final concentration of 0.5 μg/ml. An additional 15 min incubation with the marker is at 35° C. is then carried out. The concentrations {C1, . . . , Cm} are chosen such that the range [BPS, BPR] is included or equal to the range [C2, Cm] of non-null concentrations.
In the step 24, a FCM acquisition is performed for each sample by means of the flow-cytometer 12 and the corresponding FSC, SSC and fluorescence distributions stored in the computer unit 14. For each strain Si, and for each concentration Cj, a FSC distribution “FSCi,j”, a SSC distribution “SSCi,j” and a fluorescence distribution “FIi,j” are thus stored in the computer unit 14, e.g. in the form of digital vectors.
The experiment was performed as described in the following lines: • A panel of 107 Enterobacteriaceae strains (FIG. 6: Distribution of the panel of strains according to their MICs for Gentamicin) were treated with 0, 2, 4 and 8 mg/L of Gentamicin following the protocol described in FIG. 3 and analyzed by FCM.
In this experiment, we have made an evaluation of wide range of prediction models for Ceftazidime: • 128 Enterobacteriaceae strains (FIG. 9: Distribution of the panel of strains according to their MICs for Ceftazidime) were treated or not with four different concentrations of Ceftazidime (1, 2, 4 and 8 mg/L) using the FCM protocol described in FIG. 3; • FCM data were used to generate feature vectors as described above; • For each strategy (BPS, GS and GMS), 7 type of prediction models were built based on the feature vectors generated (FIG. 10: Number of predictions models generated. “FL1” means fluorescence); • The performance of all models were evaluated following cross validation as described above.

Take `CC(C)(O/N=C(\C(=O)N[C@@H]1C(=O)N2C(C(=O)[O-])=C(C[n+]3ccccc3)CS[C@H]12)c1csc(N)n1)C(=O)O` [Ceftazidime]: the “fluorescence distribution of treated strains (inferred from poor performance of quantile models)” value (128 Enterobacteriaceae strains, 1, 2, 4 and 8 mg/L Ceftazidime) was “the majority of strains treated with Ceftazidime exhibit homogeneous distributions of fluorescence”.

Gentamicin: the “fluorescence distribution profile vs untreated sample” value is, setting by setting: (intermediate phenotype strains, 2 mg/L Gentamicin) “more strains showed no shift of fluorescence (profile A)”; (intermediate phenotype strains, 4 and 8 mg/L Gentamicin) “equal number of strains exhibited either no shift (profile A) or heterogeneous fluorescence distribution (profile B)”; (susceptible phenotype strains, panel of 107 strains, 2 mg/L Gentamicin) “equal number of strains exhibited either no shift (profile A) or heterogeneous fluorescence distributions (profile B)”; (susceptible phenotype strains, panel of 107 strains, 4 and 8 mg/L Gentamicin) “the majority of strains exhibited an heterogeneous fluorescence distribution (profile B)”. Moreover, the “resistant strains that did not show any shift in fluorescence (profile A)” value (resistant strains, all concentrations tested (2, 4, 8 mg/L)) is 36 out of 37.
